# Source: ChEMBL document CHEMBL1129402, “Structure-based design of HIV protease inhibitors: 5,6-dihydro-4-hydroxy-2-pyrones as effective, nonpeptidic inhibitors” (J Med Chem, 1996)
# pIC50, pKi: −log10 of the molar value.
# Target: Human immunodeficiency virus type 1 protease (Human immunodeficiency virus 1, UniProt Q72874)
# Assay: HIV Protease inhibitory activity
pKi,pIC50,SMILES
7.02,,CCCC1(c2ccccc2)CC(=O)C(C(CC)c2ccccc2)=C(O)O1 (centres undefined)
6.80,,CCC(C1=C(O)OC(CC)(c2ccccc2)CC1=O)c1ccccc1 (centres undefined)
,< 5.00,CCC(C1=C(O)OC(Cc2ccccc2)(Cc2ccccc2)CC1=O)c1ccccc1 (centres undefined)
6.21,,CCC(C1=C(O)OC(c2ccccc2)(C2CCCCC2)CC1=O)c1cccc(O)c1 (centres undefined)
7.46,,CCCC1(CCc2ccccc2)CC(=O)C(C(CC)c2ccccc2)=C(O)O1 (centres undefined)
7.80,,C=CC(C1=C(O)OC(CCC)(CCc2ccccc2)CC1=O)c1ccccc1 (centres undefined)
,6.11,CCC(C1=C(O)OC2(CCCCC2)CC1=O)c1ccccc1 (centres undefined)
7.41,,CCCC1(CCC)CC(=O)C(C(c2ccccc2)C2CCCC2)=C(O)O1 (centres undefined)
7.23,,CCCC1(CCc2ccccc2)CC(=O)C(C(c2ccccc2)C2CCCC2)=C(O)O1 (centres undefined)
,< 6.00,C=CC(C1=C(O)OC2(CCCCC2Cc2ccccc2)CC1=O)c1ccccc1 (centres undefined)
,< 5.00,C=CC(C1=C(O)OC2(CCOCC2)CC1=O)c1ccccc1 (centres undefined)
,5.52,CCCCC1(Cc2ccccc2)CC(=O)C(C(CC)c2ccccc2)=C(O)O1 (centres undefined)
,5.52,C=CC(C1=C(O)OC2(CCCC2)CC1=O)c1ccccc1 (centres undefined)
,< 6.00,CCCC1(CCC)CC(=O)C(C(c2ccccc2)C(C)(C)C)=C(O)O1 (centres undefined)

# The next lines start with the compound.
SMILES,pKi,pIC50
CCC(C1=C(O)OC2(CCCCCCC2)CC1=O)c1ccccc1 (centres undefined),,5.52
CCCC1(CCc2ccccc2)CC(=O)C(C(c2ccccc2)C2CC2)=C(O)O1 (centres undefined),7.19,
CCC(C1=C(O)OC2(CCC(=O)CC2)CC1=O)c1ccccc1 (centres undefined),,< 6.00
CCC(C1=C(O)OC(CC(C)C)(CC(C)C)CC1=O)c1ccccc1 (centres undefined),,4.12
CCC(C1=C(O)OC(Cc2ccccc2)(c2ccccc2)CC1=O)c1ccccc1 (centres undefined),,< 5.00
CCCC1(CCc2ccccc2)CC(=O)C(C(/C=C/c2ccccc2)c2ccccc2)=C(O)O1 (centres undefined),7.30,
CCCC1(CCC)CC(=O)C(C(CC)c2ccccc2)=C(O)O1 (centres undefined),7.66,
CCCC1(CCc2ccccc2)CC(=O)C(C(CCc2ccccc2)c2ccccc2)=C(O)O1 (centres undefined),7.48,
C=CC(C1=C(O)OC2(CCCCCC2)CC1=O)c1ccccc1 (centres undefined),,< 6.00
CCCC1(CCC)CC(O)=C(C(c2ccccc2)C2CC2)C(=O)O1 (centres undefined),7.82,
